For data set [1], the system named is vascular permeability in the ischemic striatum. Kind of data set: Post ischemic vascular permeability (Evans Blue extravasation). The conditions noted are these: single IV bolus 30 min after onset of ischemia at 3, 10 and 30 mg/kg (dose of the value not stated), 24 hours reperfusion. The class given is in vivo, Wistar rats. How it is done:
Post Ischemic Vascular Permeability Wistar rats were subjected to a 90 min occlusion of the middle cerebral artery (MCA) using an intraluminal suture approach as described by Longa et al., Stroke 1989, 20:84 followed by reperfusion for 24 hours. […] Two hours before sacrifice animals received an IV injection of 2% Evans Blue in saline. Brains were perfused with saline and the striatum dissected. Evans Blue was extracted and quantified by spectrofluorometer based on external standards. Vascular permeability in the ischemic striatum was reduced as evidenced by a 60% decrease of Evans Blue extravasation. Thus, compounds of the present invention reduce vascular permeability associated with ischemic injury.

Data set [2] concerns transient focal ischemia. Kind of data set: Therapeutic window in transient focal ischemia model. The class given is in vivo, Wistar rats. How it is done: Therapeutic Window In this model of transient focal ischemia three studies were conducted to examine therapeutic window. Wistar rats were subjected to 90 minute occlusion of the MCA followed by reperfusion as described above. […] Volume of infarcted tissue was measured by histological staining.

Data set [3] has as its system permanent focal ischemia. Kind of data set: Permanent focal ischemia with extensive infarction to sensorimotor cortex, 21 day neurological assessment. Format: in vivo, Wistar rats. The settings on record: IV bolus 10 mg/kg at 90 min, 4 hours later, and 24 and 28 hours later (total 40 mg/kg); Day 21. As for the experimental part:
Wistar rats (n=5 per group) were subjected to focal ischemic stroke model that results in a extensive ischemia to the sensorimotor cortex substantially as described by Chen et al., (Stroke 17:738, 1986). […] Results were evaluated by Generalized Regression Model to determine statistical significance of the differences between slopes and to compare final neurological outcome after 21 days. […] Thus, compounds of the present invention provide long-term improvement of neurological deficits.

For data set [4], the system named is transient focal ischemia. Kind of data set: IP administration in rat model of transient focal ischemia (90 min MCA occlusion, 48 h reperfusion). The class given is in vivo, Wistar rats. The conditions noted are these: for recovery from stroke-induced neurological deficits: 85 min after onset of ischemia, evaluated over 48 hours. How it is done: Wistar rats were subjected to a 90 min occlusion of the middle cerebral artery (MCA) using an intraluminal suture approach as described by Longa et al., Stroke 1989, 20:84 followed by reperfusion for 48 hours. […] Following reperfusion, the animals were evaluated over a 48 hour period for neurological function deficit and weight loss/gain. Infarct size was measured following sacrifice at 48 hours post MCA occlusion.

For data set [5], the system named is transient focal ischemia. Kind of data set: IV administration in rat model of transient focal ischemia (90 min MCA occlusion, 48 h reperfusion). The class given is in vivo, Wistar rats. As for the experimental part:
Following reperfusion, the animals were evaluated over a 48 hour period for neurological function deficit and weight loss/gain. Brain tissue infarction volume by were reduced by 22%, 53% and 42%, respectively. […] Thus, compounds of the present invention provide neuroprotection following focal ischemia.

For data set [6], the system named is Rat2 fibroblasts stably transformed with v-Src/Hu c-Src fusion gene. Kind of data set: Anchorage Independent Src-transformed Fibroblast Proliferation Assay. The class given is cell-based. The conditions noted are these: Rattus norvegicus, src dependent suspension growth, MTS, read-out: Src cells IC50.
In data set [7] the test system is permanent focal ischemia. Put plainly: Permanent focal ischemia, model of extreme severity (intraluminal suture occlusion of internal carotid artery). Format: in vivo, rat. The settings on record: relatively short outcome (28 hours). How it is done: Permanent Focal Ischemia Example 1 was also evaluated in two rat models of permanent focal ischemia.
Data set [8] concerns the target T1, Src (Homo sapiens, UniProt P12931).
T1 construct: purchased Upstate Biotechnologies, Lake Placid, N.Y
Put plainly: Src Kinase Assay (ELISA or Delfia format, cdc2 substrate peptide). The conditions noted are these: read-out: Src enzyme IC50. The class given is biochemical. A general note: ELISA stands for enzyme-linked immunosorbent assay.

Data on 12 molecules can be found in patent US20040229880A1, “4-[(2,4-dichloro-5-methoxyphenyl)amino]-6-alkoxy-3-quinolinecarbonitriles for the treatment of ischemic injury” (Wyeth, priority 2003, published 2004).

T1 sequence (P12931 whole entry): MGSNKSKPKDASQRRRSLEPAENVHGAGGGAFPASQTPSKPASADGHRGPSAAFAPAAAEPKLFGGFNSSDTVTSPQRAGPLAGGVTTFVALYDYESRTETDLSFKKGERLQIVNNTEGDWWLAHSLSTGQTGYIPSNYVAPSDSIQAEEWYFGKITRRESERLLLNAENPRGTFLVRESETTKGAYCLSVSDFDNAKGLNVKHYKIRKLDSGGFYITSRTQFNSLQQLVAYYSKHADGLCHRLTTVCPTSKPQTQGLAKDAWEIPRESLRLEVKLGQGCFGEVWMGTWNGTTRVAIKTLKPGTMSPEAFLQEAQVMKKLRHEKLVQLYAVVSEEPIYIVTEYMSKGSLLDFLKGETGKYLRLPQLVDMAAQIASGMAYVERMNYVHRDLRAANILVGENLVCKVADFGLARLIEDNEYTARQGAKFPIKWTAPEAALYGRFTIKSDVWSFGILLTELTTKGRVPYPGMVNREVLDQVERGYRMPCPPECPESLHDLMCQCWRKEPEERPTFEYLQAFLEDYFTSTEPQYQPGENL

Take `COc1cc(Nc2c(C#N)cnc3cc(OCCCN4CCN(C)CC4)c(OC)cc23)c(Cl)cc1Cl` [Example 1, 4-[(2,4-Dichloro-5-methoxyphenyl)amino]-6-methoxy-7-[3-(4-methyl-1-piperazinyl)propoxy]-3-quinolinecarbonitrile]: in data set [1], the “decrease of Evans Blue extravasation in the ischemic striatum” value came out at 60%. Moreover, the “Brain tissue infarction (as a % of vehicle treated)” value in [2] (single 10 mg/kg dose administered between 30 min and 4 hours after the ischemic injury) is “statistically reduced”. Moreover, in data set [2] (single 10 mg/kg dose administered up to 5 hours post-stroke), the “protection from neurological deficits (as a percent of vehicle treated)” value was “Statistically significant protection”. For the same molecule, in [2] (single 10 mg/kg dose up to 5 hours post stroke), the “protection from ischemia-induced weight loss (as a % of vehicle treated)” value is “statistically significant protection”. For the same molecule, the “Behavioral Score (sensorimotor deficits) as compared to a control group” value in data set [3] is reported as “statistically significant improvement”. For the same molecule, the “recovery from stroke-induced neurological deficits” value in [4] (5 mg/kg ip) and in [4] (45 mg/kg ip) was “significantly improved” each time. For the same molecule, the “volume of infarcted brain tissue, statistical significance of reduction” value in data set [4] (45 mg/kg ip, 48 hours post MCA occlusion) is “statistical significance was achieved”. Besides, the body weight recovery entry in data set [4] (ip, over 48 hours) is “Improvement in body weight recovery was observed”. In data set [4] (most doses (1.5, 5, 15, or 45 mg/kg ip), 48 hours post MCA occlusion), the “volume of infarcted brain tissue” value is recorded as “Reductions in the volume of infarcted brain tissue were observed”. Further, the “Mean Motor Deficit Score at 24 hrs” value is 3.83 ± 0.3 in data set [5] (3 mg/kg iv), 4.08 ± 0.08 in data set [5] (10 mg/kg iv) and 4.08 ± 0.23 in data set [5] (30 mg/kg iv). Besides, the “Mean Motor Deficit Score at 48 hrs” value came out at 3.25 ± 0.37 in data set [5] (3 mg/kg iv), 3.67 ± 0.22 in data set [5] (10 mg/kg iv) and 3.67 ± 0.28 in data set [5] (30 mg/kg iv). Further, the “Brain tissue infarction volume reduced by” value in [5] (3 mg/kg iv, 30 min after MCA occlusion) is 22%; in [5] (10 mg/kg iv, 30 min after MCA occlusion) it was 53%; in [5] (30 mg/kg iv, 30 min after MCA occlusion) it was 42%. For the same molecule, in [5] (all three doses (3, 10 and 30 mg/kg iv)), the stroke-induced neurological deficits result is recorded as “significantly reduced”. Also, the Post-stroke weight loss entry in [5] (iv, 30 min after MCA occlusion) is “significantly reduced”. Also, in data set [6], the IC50 was 100 nM. In addition, in [7], the “effect in permanent focal ischemia model of extreme severity” value is given as “little or no effect”.

`CCN1CCN(CCOc2cc3ncc(C#N)c(Nc4cc(OC)c(Cl)cc4Cl)c3cc2OC)CC1` [Example 4, 4-[(2,4-Dichloro-5-methoxyphenyl)amino]-7-[2-(4-ethyl-1-piperazinyl)ethoxy]-6-methoxy-3-quinolinecarbonitrile] showed a melting point of 101 to 105 °C. Moreover, the half-inhibitory concentration (IC50) in [8] came to 3.6 nM. Also, the IC50 in data set [6] amounted to 600 nM.

Molecule `CCOc1cc2c(Nc3cc(OC)c(Cl)cc3Cl)c(C#N)cnc2cc1OCCC1CCN(C)CC1` [Example 14, 4-[(2,4-Dichloro-5-methoxyphenyl)amino]-6-ethoxy-7-[2-(1-methylpiperidin-4-yl)ethoxy]quinoline-3-carbonitrile] had a melting point of 174 to 176 °C. For the same molecule, in data set [8], the IC50 was determined as 1.9 nM. Also, in [6], the IC50 stood at 267 nM.

Turning to `CCOc1cc2c(Nc3cc(OC)c(Cl)cc3Cl)c(C#N)cnc2cc1OCC1CCN(C)CC1` [Example 10, 4-[(2,4-Dichloro-5-methoxyphenyl)amino]-6-ethoxy-7-[(1-methylpiperidin-4-yl)methoxy]quinoline-3-carbonitrile], the melting point lay within 182 to 186 °C. Besides, the IC50 in [8] was 2.1 nM. For the same molecule, the IC50 in data set [6] was 176 nM.

`CCOc1cc2c(Nc3cc(OC)c(Cl)cc3Cl)c(C#N)cnc2cc1OCCCN1CCN(C)CC1` [Example 9, 4-[(2,4-Dichloro-5-methoxyphenyl)amino]-6-ethoxy-7-[3-(4-methylpiperazin-1-yl)propoxy]quinoline-3-carbonitrile] had a melting point of 137 to 138 °C. In addition, the IC50 in data set [6] amounted to 86 nM.

Consider `CCOc1cc2c(Nc3cc(OC)c(Cl)cc3Cl)c(C#N)cnc2cc1OCCCN1CCN(CC)CC1` [Example 11, 4-[(2,4-Dichloro-5-methoxyphenyl)amino]-6-ethoxy-7-[3-(4-ethylpiperazin-1-yl)propoxy]quinoline-3-carbonitrile], for which the melting point is 127 to 130 °C. Moreover, in data set [8], the IC50 came out at 0.85 nM. The half-inhibitory concentration (IC50) in [6] turned out to be 160 nM.

`CCN1CCC(COc2cc3ncc(C#N)c(Nc4cc(OC)c(Cl)cc4Cl)c3cc2OC)CC1` [Example 8, 4-[(2,4-Dichloro-5-methoxyphenyl)amino]-7-[(1-ethylpiperidin-4-yl)methoxy]-6-methoxyquinoline-3-carbonitrile] returned a melting point of 192 to 195 °C. For the same molecule, the IC50 in data set [8] was determined as 2.1 nM. The IC50 in data set [6] was 170 nM.

Regarding `COc1cc(Nc2c(C#N)cnc3cc(OCCN4CCN(C)CC4)c(OC)cc23)c(Cl)cc1Cl` [Example 3, 4-[(2,4-Dichloro-5-methoxyphenyl)amino]-6-methoxy-7-[2-(4-methyl-1-piperazinyl)ethoxy]-3-quinolinecarbonitrile], the melting point was in the range of 165 to 167 °C. For the same molecule, the IC50 in [8] amounted to 4 nM. The IC50 in [6] turned out to be 380 nM.

`CCOc1cc2c(Nc3cc(OC)c(Cl)cc3Cl)c(C#N)cnc2cc1OCCN1CCN(C)CC1` [Example 13, 4-[(2,4-Dichloro-5-methoxyphenyl)amino]-6-ethoxy-7-[2-(4-methyl-1-piperazinyl)ethoxy]quinoline-3-carbonitrile] yielded a melting point of 141 to 143 °C. For the same molecule, the IC50 in [8] stood at 1.5 nM. Further, the IC50 in [6] amounted to 146 nM.

For the molecule `CCCN1CCN(CCCOc2cc3ncc(C#N)c(Nc4cc(OC)c(Cl)cc4Cl)c3cc2OC)CC1` [Example 15, 4-[(2,4-Dichloro-5-methoxyphenyl)amino]-6-methoxy-7-[3-(4-propyl-1-piperazinyl)propoxy]-3-quinolinecarbonitrile], the IC50 in [6] was 160 nM.

With `CCOc1cc2c(Nc3cc(OC)c(Cl)cc3Cl)c(C#N)cnc2cc1OCCCC1CCN(C)CC1` [Example 12, 4-[(2,4-Dichloro-5-methoxyphenyl)amino]-6-ethoxy-7-[3-(1-methylpiperidin-4-yl)propoxy]quinoline-3-carbonitrile], the melting point lay in the range of 148 to 151 °C. The half-maximal inhibitory concentration (IC50) in data set [8] stood at 1.4 nM. Moreover, in data set [6], the IC50 is 96 nM.

In the case of `CCN1CCN(CCCOc2cc3ncc(C#N)c(Nc4cc(OC)c(Cl)cc4Cl)c3cc2OC)CC1` [Example 2, 4-[(2,4-Dichloro-5-methoxyphenyl)amino]-7-[3-(4-ethyl-1-piperazinyl)propoxy]-6-methoxy-3-quinolinecarbonitrile], the IC50 in data set [6] came out at 130 nM.

In general, IC50 refers to the point on the concentration scale where inhibition reaches its midpoint. As a reminder, the melting point is the temperature, or range, at which the solid turns liquid.
